Measured values from US10743543B2, “Botanical disinfection composition, disinfectant and preparation method thereof” (priority 2016, dated 2020).

Legend:
pathogenic bacteria = details: general statement on antibacterial properties; cited from earlier work
Candida albicans = assay: Time needed to meet disinfection requirements, Candida albicans; assay type: cell-based; details: concentration: ethanol 70%, iodophor 40 mg/L, Embodiment 11 stock
Pseudomonas auerginosa = assay: Time needed to meet disinfection requirements, Pseudomonas aeruginosa; assay type: cell-based; details: concentration: ethanol 70%, 1210 500 ppm, Embodiment 11 stock
Staphylococcus aureus = assay: Time needed to meet disinfection requirements, Staphylococcus aureus; assay type: cell-based; details: concentration: ethanol 70%, benzalkonium bromide 1:1000, 1210 250 ppm, Embodiment 11 stock
[1] = test system: Mycobacterium tuberculosis; details: concentration: ethanol 70%
Escherichia coli = assay: Time needed to meet disinfection requirements, Escherichia coli; assay type: cell-based; details: concentration: ethanol 70%, benzalkonium bromide 1:1000, 1210 250 ppm, Embodiment 11 stock

## O=C(O)CCCCCCCC(=O)O [Azelaic acid, azelaic acid]
Pathogenic bacteria
  bactericidal concentration: 1 mol/L

## CCO [Ethanol]
Candida albicans
  Time needed for meeting disinfection requirements: 1 min
Pseudomonas auerginosa
  Time needed for meeting disinfection requirements: 1 min
Staphylococcus aureus
  Time needed for meeting disinfection requirements: 5 min
[1]
  Time needed for meeting disinfection requirements: 5 min
Escherichia coli
  Time needed for meeting disinfection requirements: 0.5. min

## Benzalkonium bromide
Staphylococcus aureus
  Time needed for meeting disinfection requirements: 5 min
Escherichia coli
  Time needed for meeting disinfection requirements: 10 min
